The values below come from patent US20230203098A1, “HUMAN TRANSFERRIN RECEPTOR BINDING PEPTIDE” (priority 2020, published 2023).

SMILES strings stand for the structures. Where a SMILES comes first, the peptide text is derived from it. Bridges are numbered along the chain shown (N, C = ends). [ ]: non-standard residue; d: D form. The star is where a group is joined. X2 = O=C(O)c1cc(C(=O)*)ccc1-c1c2ccc(=O)cc-2oc2cc(O)ccc12; PEG12 = NCCOCCOCCOCCOCCOCCOCCOCCOCCOCCOCCOCCOCCC(=O)O; NMePhe(3-Cl) = CN[C@@H](Cc1cccc(Cl)c1)C(=O)O; NMeW = CN[C@@H](Cc1c[nH]c2ccccc12)C(=O)O

In general, Kd refers to the equilibrium constant for the complex coming apart.

transferrin receptor (hTfR), sequence (P02786 whole entry): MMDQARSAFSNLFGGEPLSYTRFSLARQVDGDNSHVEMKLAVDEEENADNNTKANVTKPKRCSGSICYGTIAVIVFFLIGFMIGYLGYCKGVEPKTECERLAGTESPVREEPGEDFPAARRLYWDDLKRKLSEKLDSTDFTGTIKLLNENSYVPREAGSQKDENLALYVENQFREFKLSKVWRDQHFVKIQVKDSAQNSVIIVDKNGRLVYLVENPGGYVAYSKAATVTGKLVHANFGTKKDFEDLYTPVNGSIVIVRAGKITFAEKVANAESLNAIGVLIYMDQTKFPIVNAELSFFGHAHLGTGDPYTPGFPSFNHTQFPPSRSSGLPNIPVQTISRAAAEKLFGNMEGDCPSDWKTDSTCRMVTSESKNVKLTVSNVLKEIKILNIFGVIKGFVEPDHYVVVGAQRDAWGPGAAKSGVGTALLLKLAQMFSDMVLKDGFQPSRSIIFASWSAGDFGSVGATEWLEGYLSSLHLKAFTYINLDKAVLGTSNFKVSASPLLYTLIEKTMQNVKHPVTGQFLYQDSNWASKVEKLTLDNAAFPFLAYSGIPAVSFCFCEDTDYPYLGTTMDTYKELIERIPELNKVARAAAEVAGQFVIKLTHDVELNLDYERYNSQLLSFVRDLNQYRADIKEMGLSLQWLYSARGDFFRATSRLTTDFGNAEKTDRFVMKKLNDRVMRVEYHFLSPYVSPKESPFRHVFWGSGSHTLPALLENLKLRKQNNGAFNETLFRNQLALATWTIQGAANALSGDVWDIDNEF

The first assay concerns the target transferrin receptor (hTfR) (Homo sapiens, UniProt P02786). Description: Intermolecular interaction evaluation test between transferrin receptor (hTfR) and peptide by surface plasmon resonance (SPR). It is filed as binding. To be noted: SPR; peptides, linker-added peptides and FITC conjugates, Patent ID 203-230; read-out: KD. The method in brief: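 Receptor was Ni-captured and EDC/NHS-fixed on an NTA chip; running buffer HEPES pH 8.0 with NaCl, Tween 20, BSA and 1.0% DMSO.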
Consider `CC[C@H](C)[C@@H]1NC(=O)[C@H](Cc2ccc(OC)cc2)NC(=O)[C@H](Cc2ccc(O)cc2)NC(=O)[C@H](CC(N)=O)NC(=O)[C@H](Cc2c[nH]c3ccccc23)N(C)C(=O)[C@H](C(C)C)NC(=O)[C@H](Cc2cccc(Cl)c2)N(C)C(=O)[C@H](CCC(=O)O)NC(=O)[C@H](C)NC(=O)CSC[C@@H](C(N)=O)NC(=O)[C@H](CO)NC(=O)[C@H]([C@@H](C)CC)NC1=O` [compound 203] ({CH2CO}-AE[NMePhe(3-Cl)]V[NMeW]NYY(Me)IISC-NH2; thioether N-12), for which the dissociation constant Kd lay in the range of 1 to 100 nM.

As for `CC[C@H](C)[C@@H]1NC(=O)[C@H](Cc2ccc(O)cc2)NC(=O)[C@H](Cc2ccc(O)cc2)NC(=O)[C@H](CC(N)=O)NC(=O)[C@H](Cc2c[nH]c3ccccc23)NC(=O)[C@H](C(C)C)NC(=O)[C@H](Cc2ccccc2)NC(=O)[C@H](C(C)C)NC(=O)[C@H](C)NC(=O)CSC[C@@H](C(=O)NCCOCCOCCOCCOCCOCCOCCOCCOCCOCCOCCOCCOCCC(=O)N[C@@H](CCCCNC(=O)c2ccc(-c3c4ccc(=O)cc-4oc4cc(O)ccc34)c(C(=O)O)c2)C(N)=O)NC(=O)[C@H](Cc2c[nH]cn2)NC(=O)[C@H](C(C)C)NC1=O` [compound 204] ({CH2CO}-AVFVWNYYIVHC[PEG12]K(X2)-NH2; thioether N-12), the dissociation constant Kd was in the range of 100 to 1000 nM.

For `CC[C@H](C)[C@@H]1NC(=O)[C@H](Cc2ccc(OC)cc2)NC(=O)[C@H](Cc2ccc(O)cc2)NC(=O)[C@H](CC(N)=O)NC(=O)[C@H](Cc2c[nH]c3ccccc23)N(C)C(=O)[C@H](C(C)C)NC(=O)[C@H](Cc2cccc(Cl)c2)N(C)C(=O)[C@H](CCC(=O)O)NC(=O)[C@H](C)NC(=O)CSC[C@@H](C(N)=O)NC(=O)[C@H](CCC(=O)O)NC(=O)[C@H](CCCNC(=N)N)NC(=O)[C@@H]2CCCN2C(=O)[C@H](C(C)C)NC1=O` [compound 206] ({CH2CO}-AE[NMePhe(3-Cl)]V[NMeW]NYY(Me)IVPREC-NH2; thioether N-14), the Kd is 1 to 100 nM. As for `CC[C@H](C)[C@@H]1NC(=O)[C@H](Cc2ccc(OC)cc2)NC(=O)[C@H](Cc2ccc(O)cc2)NC(=O)[C@H](CC(N)=O)NC(=O)[C@H](Cc2c[nH]c3ccccc23)N(C)C(=O)[C@H](C(C)C)NC(=O)[C@H](Cc2cccc(Cl)c2)N(C)C(=O)[C@H](CCC(=O)O)NC(=O)[C@H](C)NC(=O)CSC[C@@H](C(N)=O)NC(=O)[C@H](CC(N)=O)NC(=O)[C@H](CCCNC(=N)N)NC(=O)[C@@H]2CCCN2C(=O)[C@H](C(C)C)NC1=O` [compound 207] ({CH2CO}-AE[NMePhe(3-Cl)]V[NMeW]NYY(Me)IVPRNC-NH2; thioether N-14), the Kd is 1 to 100 nM.

Still in this assay, the particulars now being: hTfR binding by SPR; hTfR No. 894 variant peptides, linker-added peptides and payload conjugates (Table 2); read-out: KD value obtained from the SPR measurement.
As to `CC[C@H](C)[C@@H]1NC(=O)[C@H](Cc2ccc(O)cc2)NC(=O)[C@H](Cc2ccc(O)cc2)NC(=O)[C@H](CC(N)=O)NC(=O)[C@H](Cc2c[nH]c3ccccc23)NC(=O)[C@H](C(C)C)NC(=O)[C@H](Cc2ccccc2)N(C)C(=O)[C@H](C(C)C)NC(=O)[C@H](C)NC(=O)CSC[C@@H](C(=O)NCC(=O)NCC(=O)N[C@@H](CO)C(=O)NCC(=O)N[C@@H](CO)C(=O)N[C@@H](CO)C(=O)NCC(=O)N[C@@H](CO)C(=O)N[C@@H](CO)C(=O)N[C@@H](CCCCNC(=O)C2CCC(CN3C(=O)C=CC3=O)CC2)C(N)=O)NC(=O)[C@H](Cc2ccc(O)cc2)N(C)C(=O)[C@H](Cc2ccc(O)cc2)NC(=O)[C@H](CCCNC(=N)N)NC(=O)[C@H](CCCNC(=N)N)NC(=O)[C@H]([C@@H](C)CC)NC1=O` (stereo partly shown) [compound 189], the equilibrium dissociation constant (Kd) lay in the range of 1 to 100 nM.

As to `CC[C@H](C)[C@@H]1NC(=O)[C@H](Cc2ccc(O)cc2)NC(=O)[C@H](Cc2ccc(O)cc2)NC(=O)[C@H](CC(N)=O)NC(=O)[C@H](Cc2c[nH]c3ccccc23)NC(=O)[C@H](C(C)C)NC(=O)[C@H](Cc2ccccc2)N(C)C(=O)[C@H](C(C)C)NC(=O)[C@H](C)NC(=O)CSC[C@@H](C(=O)NCC(=O)NCC(=O)N[C@@H](CCC(=O)O)C(=O)N[C@@H](CO)C(=O)N[C@@H](CCC(=O)O)C(=O)N[C@@H](CO)C(=O)N[C@@H](CCCCNC(=O)C2CCC(CN3C(=O)C=CC3=O)CC2)C(N)=O)NC(=O)[C@H](Cc2ccc(O)cc2)N(C)C(=O)[C@H](Cc2ccc(O)cc2)NC(=O)[C@H](CCCNC(=N)N)NC(=O)[C@H](CCCNC(=N)N)NC(=O)[C@H]([C@@H](C)CC)NC1=O` (stereo partly shown) [compound 192], the Kd lay in the range of 1 to 100 nM. The same measure, in the same setting: then `CC[C@H](C)[C@@H]1NC(=O)[C@H](Cc2ccc(O)cc2)NC(=O)[C@H](Cc2ccc(O)cc2)NC(=O)[C@H](CC(N)=O)NC(=O)[C@H](Cc2c[nH]c3ccccc23)NC(=O)[C@H](C(C)C)NC(=O)[C@H](Cc2ccccc2)N(C)C(=O)[C@H](C(C)C)NC(=O)[C@H](C)NC(=O)CSC[C@@H](C(=O)NCC(=O)NCC(=O)N[C@@H](CO)C(=O)N[C@@H](CO)C(=O)N[C@@H](CCCCNC(=O)C2CCC(CN3C(=O)C=CC3=O)CC2)C(N)=O)NC(=O)[C@H](Cc2ccc(O)cc2)N(C)C(=O)[C@H](Cc2ccc(O)cc2)NC(=O)[C@H](CCCNC(=N)N)NC(=O)[C@H](CCCNC(=N)N)NC(=O)[C@H]([C@@H](C)CC)NC1=O` (stereo partly shown) [compound 193], with 1 to 100 nM; and `CC[C@H](C)[C@@H]1NC(=O)[C@H](Cc2ccc(O)cc2)NC(=O)[C@H](Cc2ccc(O)cc2)NC(=O)[C@H](CC(N)=O)NC(=O)[C@H](Cc2c[nH]c3ccccc23)NC(=O)[C@H](C(C)C)NC(=O)[C@H](Cc2ccccc2)N(C)C(=O)[C@H](C(C)C)NC(=O)[C@H](C)NC(=O)CSC[C@@H](C(=O)NCC(=O)NCC(=O)N[C@@H](CO)C(=O)N[C@@H](CCCCNC(=O)C2CCC(CN3C(=O)C=CC3=O)CC2)C(N)=O)NC(=O)[C@H](Cc2ccc(O)cc2)N(C)C(=O)[C@H](Cc2ccc(O)cc2)NC(=O)[C@H](CCCNC(=N)N)NC(=O)[C@H](CCCNC(=N)N)NC(=O)[C@H]([C@@H](C)CC)NC1=O` (stereo partly shown) [compound 194], with 1 to 100 nM; and `CC[C@H](C)[C@@H]1NC(=O)[C@H](Cc2ccc(O)cc2)NC(=O)[C@H](Cc2ccc(O)cc2)NC(=O)[C@H](CC(N)=O)NC(=O)[C@H](Cc2c[nH]c3ccccc23)NC(=O)[C@H](C(C)C)NC(=O)[C@H](Cc2ccccc2)N(C)C(=O)[C@H](C(C)C)NC(=O)[C@H](C)NC(=O)CSC[C@@H](C(=O)NCC(=O)NCC(=O)N[C@@H](CCCCNC(=O)C2CCC(CN3C(=O)C=CC3=O)CC2)C(N)=O)NC(=O)[C@H](Cc2ccc(O)cc2)N(C)C(=O)[C@H](Cc2ccc(O)cc2)NC(=O)[C@H](CCCNC(=N)N)NC(=O)[C@H](CCCNC(=N)N)NC(=O)[C@H]([C@@H](C)CC)NC1=O` (stereo partly shown) [compound 195], with 1 to 100 nM.

As to `CC[C@H](C)[C@@H]1NC(=O)[C@H](Cc2ccc(O)cc2)NC(=O)[C@H](Cc2ccc(O)cc2)NC(=O)[C@H](CC(N)=O)NC(=O)[C@H](Cc2c[nH]c3ccccc23)NC(=O)[C@H](C(C)C)NC(=O)[C@H](Cc2ccccc2)N(C)C(=O)[C@H](C(C)C)NC(=O)[C@H](C)NC(=O)CSC[C@@H](C(=O)NCC(=O)NCC(=O)N[C@@H](CO)C(=O)NCC(=O)N[C@@H](CO)C(=O)N[C@@H](CO)C(=O)NCC(=O)NCC(=O)N[C@@H](CO)C(=O)NCC(=O)N[C@@H](CO)C(=O)N[C@@H](CO)C(=O)N[C@@H](CCCCNC(=O)C2CCC(CN3C(=O)C=CC3=O)CC2)C(N)=O)NC(=O)[C@H](Cc2ccc(O)cc2)N(C)C(=O)[C@H](Cc2ccc(O)cc2)NC(=O)[C@H](CCCNC(=N)N)NC(=O)[C@H](CCCNC(=N)N)NC(=O)[C@H]([C@@H](C)CC)NC1=O` (stereo partly shown) [compound 196], the Kd was in the range of 1 to 100 nM. Regarding `CC[C@H](C)[C@@H]1NC(=O)[C@H](Cc2ccc(O)cc2)NC(=O)[C@H](Cc2ccc(O)cc2)NC(=O)[C@H](CC(N)=O)NC(=O)[C@H](Cc2c[nH]c3ccccc23)N(C)C(=O)[C@H](C(C)C)NC(=O)[C@H](Cc2ccccc2)NC(=O)[C@H](C(C)C)NC(=O)[C@H](C)NC(=O)CSC[C@@H](C(=O)NCC(=O)N[C@@H](CO)C(=O)N[C@@H](CO)C(=O)NCC(=O)N[C@@H](CO)C(=O)N[C@@H](CO)C(=O)N[C@@H](CCCCNC(=O)C2CCC(CN3C(=O)C=CC3=O)CC2)C(N)=O)NC(=O)[C@H](Cc2ccc(O)cc2)N(C)C(=O)[C@H](Cc2ccc(O)cc2)NC(=O)[C@H](CCCNC(=N)N)NC(=O)[C@H](CCCNC(=N)N)NC(=O)[C@H]([C@@H](C)CC)NC1=O` (stereo partly shown) [compound 197], the Kd fell in the range of 1 to 100 nM.

`CC[C@H](C)[C@@H]1NC(=O)[C@H](Cc2ccc(O)cc2)NC(=O)[C@H](Cc2ccc(O)cc2)NC(=O)[C@H](CC(N)=O)NC(=O)[C@H](Cc2c[nH]c3ccccc23)N(C)C(=O)[C@H](C(C)C)NC(=O)[C@H](Cc2ccccc2)N(C)C(=O)[C@H](C(C)C)NC(=O)[C@H](C)NC(=O)CSC[C@@H](C(=O)NCC(=O)NCC(=O)N[C@@H](CCCNC(=N)N)C(=O)NCC(=O)N[C@@H](CCCNC(=N)N)C(=O)N[C@@H](CO)C(=O)N[C@@H](CCCCNC(=O)C2CCC(CN3C(=O)C=CC3=O)CC2)C(N)=O)NC(=O)[C@H](Cc2ccc(O)cc2)N(C)C(=O)[C@H](Cc2ccc(O)cc2)NC(=O)[C@H](CCCNC(=N)N)NC(=O)[C@H](CCCNC(=N)N)NC(=O)[C@H]([C@@H](C)CC)NC1=O` (stereo partly shown) [compound 198]: the Kd lay within 1 to 100 nM. The same measure, in the same setting: in the case of `CC[C@H](C)[C@@H]1NC(=O)[C@H](Cc2ccc(O)cc2)NC(=O)[C@H](Cc2ccc(O)cc2)NC(=O)[C@H](CC(N)=O)NC(=O)[C@H](Cc2c[nH]c3ccccc23)N(C)C(=O)[C@H](C(C)C)NC(=O)[C@H](Cc2ccccc2)N(C)C(=O)[C@H](C(C)C)NC(=O)[C@H](C)NC(=O)CSC[C@@H](C(=O)NCC(=O)NCC(=O)N[C@@H](CCCNC(=N)N)C(=O)N[C@@H](CO)C(=O)N[C@@H](CCC(=O)O)C(=O)N[C@@H](CO)C(=O)N[C@@H](CCCCNC(=O)C2CCC(CN3C(=O)C=CC3=O)CC2)C(N)=O)NC(=O)[C@H](Cc2ccc(O)cc2)N(C)C(=O)[C@H](Cc2ccc(O)cc2)NC(=O)[C@H](CCCNC(=N)N)NC(=O)[C@H](CCCNC(=N)N)NC(=O)[C@H]([C@@H](C)CC)NC1=O` (stereo partly shown) [compound 199] it was 1 to 100 nM.
